These results are taken from ChEMBL document CHEMBL2069165, “Synthesis and evaluation of substituted hexahydronaphthalenes as novel inhibitors of the Mcl-1/BimBH3 interaction” (Bioorg Med Chem Lett, 2012).

The inhibition is the drop in the measured response relative to a control, in per cent. Usually IC50 stands for the point on the concentration scale where inhibition reaches its midpoint. Lower therefore signals inhibition by little substance.

T1 sequence (O43521 whole entry, looked up, the tested form may be a part): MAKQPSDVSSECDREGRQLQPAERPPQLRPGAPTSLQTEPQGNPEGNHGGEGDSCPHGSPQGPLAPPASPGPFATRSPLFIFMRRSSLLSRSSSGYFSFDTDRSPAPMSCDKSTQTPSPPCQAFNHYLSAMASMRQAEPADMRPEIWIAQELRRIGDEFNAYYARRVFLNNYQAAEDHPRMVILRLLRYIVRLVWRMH
T1 sequence (Q07820 whole entry, looked up, the tested form may be a part): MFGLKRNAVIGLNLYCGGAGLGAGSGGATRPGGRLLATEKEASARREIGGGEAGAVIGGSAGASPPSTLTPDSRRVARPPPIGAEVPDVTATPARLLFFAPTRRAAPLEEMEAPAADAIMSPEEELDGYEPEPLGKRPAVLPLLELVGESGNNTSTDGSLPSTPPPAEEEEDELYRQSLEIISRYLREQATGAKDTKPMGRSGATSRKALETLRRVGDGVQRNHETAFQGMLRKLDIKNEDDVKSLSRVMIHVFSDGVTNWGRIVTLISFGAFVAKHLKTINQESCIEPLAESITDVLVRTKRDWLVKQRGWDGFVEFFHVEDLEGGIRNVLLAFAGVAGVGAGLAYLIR
Induced myeloid leukemia cell differentiation protein Mcl-1/Bcl-2-like protein 11, sequence (Q07820 whole entry, the tested form may be a part): as the sequence (Q07820 whole entry, looked up, the tested form may be a part) above
Induced myeloid leukemia cell differentiation protein Mcl-1/Bcl-2-like protein 11, sequence (O43521 whole entry, further chain, the tested form may be a part): as the sequence (O43521 whole entry, looked up, the tested form may be a part) above

The first data set addresses T1, Induced myeloid leukemia cell differentiation protein Mcl-1/Bcl-2-like protein 11 (Homo sapiens) (UniProt Q07820+O43521). Briefly: Inhibition of GST-Mcl-1/BH3 domain of Bim interaction at 25 uM after 1 hr by ELISA. The format is protein assay.
Details: not given
For orientation: ELISA stands for enzyme-linked immunosorbent assay.
As to `COCOC[C@@]12C=C[C@@H](C(C)(C)C(=O)OCc3ccccc3)C[C@@H]1C=C(C)C[C@@H]2OCc1ccccc1`, the inhibition is 64.9%. `C=C(C)CNC(=O)C(C)(C)[C@@H]1C=C[C@@]2(COCOC)[C@@H](O)CC(C)=C[C@H]2C1`: the inhibition came to 17.1%. Same read-out and setting: to `C=C(C)COC(=O)C(C)(C)[C@@H]1C=C[C@@]2(COCOC)[C@@H](OCC(=C)C)CC(C)=C[C@H]2C1` belongs 31.2%; to `COC(=O)C(C)(C)[C@@H]1C=C[C@@]2(CO)[C@@H](O)CC(C)=C[C@H]2C1`, 25%; to `COCOC[C@@]12C=C[C@@H](C(C)(C)C(=O)O)C[C@@H]1C=C(C)C[C@@H]2O`, 18.2%. Still for that read-out and setting: to `COCOC[C@@]12C=C[C@@H](C(C)(C)C(=O)OC)C[C@@H]1C=C(C)C[C@@H]2OC(=O)NC1CCCCC1` belongs 34.8%; to `C=C(C)CNC(=O)C(C)(C)C1C=CC2(COCOC)C(C=C(C)CC2OC(=O)Nc2cccc(Cl)c2)C1` (racemic), 74.3%.

Take `COCOC[C@@]12C=C[C@@H](C(C)(C)C(=O)NCc3ccc(Br)cc3)C[C@@H]1C=C(C)C[C@@H]2OC(=O)NC1CCCCC1` (relative stereo): the inhibition worked out at 64.4%. On the same count and under the same terms, to `C=C(C)CNC(=O)C(C)(C)[C@@H]1C=C[C@@]2(COCOC)[C@@H](OC(=O)NC(C)C)CC(C)=C[C@H]2C1` (relative stereo) belongs 31.2%. Still for that read-out and setting: to `C=C(C)CNC(=O)C(C)(C)[C@@H]1C=C[C@@]2(COCOC)[C@@H](OC(=O)NC3CCCC3)CC(C)=C[C@H]2C1` (relative stereo) belongs 19.7%. In the case of `C=C(C)CNC(=O)C(C)(C)[C@@H]1C=C[C@@]2(COCOC)[C@@H](OC(=O)NC3CCCCC3)CC(C)=C[C@H]2C1` (relative stereo), the inhibition worked out at 53.8%. On the same count and under the same terms, to `C=C(C)CNC(=O)C(C)(C)[C@@H]1C=C[C@@]2(COCOC)[C@@H](OC(=O)NCc3ccccc3)CC(C)=C[C@H]2C1` (relative stereo) belongs 40.3%; to `C=C(C)CNC(=O)C(C)(C)[C@@H]1C=C[C@@]2(COCOC)[C@@H](OC(=O)Nc3ccccc3)CC(C)=C[C@H]2C1` (relative stereo), 61.8%. `COCOC[C@@]12C=C[C@@H](C(C)(C)C(=O)N3CCOCC3)C[C@@H]1C=C(C)C[C@@H]2OC(=O)NC1CCCCC1` (relative stereo): the inhibition came to 26.5%. Same read-out and setting: to `COCOC[C@@]12C=C[C@@H](C(C)(C)C(=O)NCc3ccccc3)C[C@@H]1C=C(C)C[C@@H]2OC(=O)NC1CCCCC1` (relative stereo) belongs 53.9%.

The next data set addresses Induced myeloid leukemia cell differentiation protein Mcl-1/Bcl-2-like protein 11 (Homo sapiens, UniProt Q07820). In words: Inhibition of GST-Mcl-1/BH3 domain of Bim interaction after 1 hr by ELISA. It is filed as protein assay.
Details: not given
Turning to `COCOC[C@@]12C=C[C@@H](C(C)(C)C(=O)OCc3ccccc3)C[C@@H]1C=C(C)C[C@@H]2OCc1ccccc1`, the IC50 stood at 13.1 µM.

`C=C(C)CNC(=O)C(C)(C)C1C=CC2(COCOC)C(C=C(C)CC2OC(=O)Nc2cccc(Cl)c2)C1` (racemic): the 50% inhibitory concentration (IC50) was found to be 8.3 µM. The same measure, in the same setting: the same measure for `COCOC[C@@]12C=C[C@@H](C(C)(C)C(=O)NCc3ccc(Br)cc3)C[C@@H]1C=C(C)C[C@@H]2OC(=O)NC1CCCCC1` (relative stereo): 17 µM.

Another data set addresses T1, Induced myeloid leukemia cell differentiation protein Mcl-1/Bcl-2-like protein 11 (Homo sapiens). In words: Inhibition of GST-Mcl-1/BH3 domain of Bim interaction in human MDA-MB-468 cells at 25 uM after 24 hrs by Western blotting relative to control. It is filed as cell-based.
Details: not given
For the molecule `CC(C)Cc1cc(-c2ccc(-c3ccc(CCC(=O)O)cc3CC(C)C)cc2Cc2ccccc2)ccc1OCC(=O)O`, the inhibition was 61.9%.

On to `O=C(O)CCc1ccc(-c2ccc(-c3ccc(OCC(=O)O)cc3)cc2)cc1`, for which the inhibition is 96.9%. Still for that read-out and setting: the same measure for `C=C(C)CNC(=O)C(C)(C)C1C=CC2(COCOC)C(C=C(C)CC2OC(=O)Nc2cccc(Cl)c2)C1` (racemic): 70.6%.

The next data set has the same target. In words: Inhibition of GST-Mcl-1/BH3 domain of Bim interaction in human MDA-MB-468 cells at 50 uM after 24 hrs by Western blotting relative to control. The format is cell-based.
Details: not given
`CC(C)Cc1cc(-c2ccc(-c3ccc(CCC(=O)O)cc3CC(C)C)cc2Cc2ccccc2)ccc1OCC(=O)O`: the inhibition came out at 55.7%.

As for `O=C(O)CCc1ccc(-c2ccc(-c3ccc(OCC(=O)O)cc3)cc2)cc1`, the inhibition is 107%. Still for that read-out and setting: the same measure for `C=C(C)CNC(=O)C(C)(C)C1C=CC2(COCOC)C(C=C(C)CC2OC(=O)Nc2cccc(Cl)c2)C1` (racemic): 46.4%.

A further data set has as its system MDA-MB-468. In words: Growth inhibition of human MDA-MB-468 cells at 100 uM after 72 to 120 hrs by MTT assay. To be noted: read-out: GI. The format is functional. (In general: Formazan colour is commonly taken as a measure of viable cells.)
For the molecule `C=C(C)CNC(=O)C(C)(C)C1C=CC2(COCOC)C(C=C(C)CC2OC(=O)Nc2cccc(Cl)c2)C1` (racemic), the inhibition of growth at 100 µM amounted to 80%.

System in the next data set: not listed separately
Briefly: Solubility of the compound in human MDA-MB-468 cell culture medium at >100 uM. It is filed as physicochemical.
Details: not given
Turning to `C=C(C)CNC(=O)C(C)(C)C1C=CC2(COCOC)C(C=C(C)CC2OC(=O)Nc2cccc(Cl)c2)C1` (racemic), the solubility entry is reported as “Insoluble”.
